Results taken from US8933067B2, “Pyrido and pyrimidopyrimidine derivatives as anti-profilerative agents” (Janssen Pharmaceutica N.V., priority 2003, dated 2015).

Tests used:
[1] = target: T1, EGFR-kinase domain (Homo sapiens, UniProt P00533); experiment: In vitro inhibition of EGFR (Flash Plate or glass-fiber filter kinase assay); type: biochemical; details: pIC50; read-out: In vitro kinase activity assay.(C1): IC50 (converted)
T1 construct: 0.35 μg/well poly(GT)biotin and 0.5 μg EGFR-kinase domain/well
Description: The in vitro inhibition of EGFR was assessed using either the Flash Plate technology or the glass-fiber filter technology as described by Davies, S. P. et al., Biochem J. (2000), 351; p. 95-105. The Flash Plate technology is generally described by B. A. Brown et al. in High Throughput Screening (1997), p. 317-328. Editor(s): Devlin, John P. Publisher: Dekker, New York, N.Y.
In the Flash Plate EGFR kinase reaction assay, a kinase substrate consisting of biotinylated poly(L-glutamic acid-L-tyrosine) (poly(GT)biotin), is incubated with the aforementioned protein in the presence of (^33P) radiolabeled ATP. (^33P) phosphorylation of the substrate is subsequently measured as light energy emitted using a streptavidin-coated Flash Plate (PerkinElmer Life Sciences) by trapping and quantifying the binding of the biotin tagged and radiolabeled substrate.
The EGFR kinase reaction is performed at 30° C. for 60 minutes in a 96-well microtiter FlashPlate (PerkinElmer Life Sciences). For each of the tested compounds a full dose response 1.10^−6M to 1.10^−10M has been performed. IRESSA® and Tarceva™ (erlotinib) were used as reference compounds. The 100 μl reaction volume contains 54.5 mM TrisHCl pH 8.0, 10 mM MgCl2, 100 μM Na3VO4, 5.0 μM unlabeled ATP, 1 mM DTT, 0.009% BSA, 0.8 μCi AT^33P, 0.35 μg/well poly(GT)biotin and 0.5 μg EGFR-kinase domain/well.
The reaction is stopped by aspirating the reaction mixture and washing the plate 3× with 200 μl wash/stop buffer (PBS+100 mM EDTA). After the final wash step 200 μl of wash/stop buffer was added to each well and the amount of phosphorylated (^33P) Poly(GT)biotin determined by counting (30 sec/well) in a microtiterplate scintillation counter.
In the glass-fiber filter technology EGFR kinase reaction assay, a kinase substrate consisting of poly(L-glutamic acid-L-tyrosine) (poly(GT)), is incubated with the aforementioned protein in the presence of (^33P) radiolabeled ATP. (^33P) Phosporylation of the substrate is subsequently measured as radioactivity bound on a glassfiber-filter.
The EGFR kinase reaction is performed at 25° C. for 10 minutes in a 96-well microtiterplate. For each of the tested compounds a full dose response 1.10^−6M to 1.10^−10M has been performed. IRESSA® and Tarceva™ (erlotinib) were used as reference compounds. The 25 μl reaction volume contains 60 mM TrisHCl pH 7.5, 3 mM MgCl2, 3 mM Mn Cl2, 3 μM Na3VO4, 50 μg/ml PEG20000, 5.0 μM unlabeled ATP, 1 mM DTT, 0.1 μCi AT^33P, 62.5 ng/well poly(GT) and 0.5 μg EGFR-kinase domain/well.
The reaction is stopped by adding 5 μl of a 3% phosphoric acid solution. 10 μl of the reaction mixture is then spotted onto a Filtermat A filter (Wallac) and washed 3 times for 5 min. in 75 mM phosphoric acid and 1 time for 5 min. in methanol prior to drying and quantification on the Typhoon (Amersham) using a LE phosphorage storage screen.

[2] = tested on: SKOV3 cells; experiment: Serum starved, EGF stimulated proliferation assay on ovarian carcinoma SKOV3 cells (MTT); type: cell-based; details: Homo sapiens, SK-OV-3; EGF 100 ng/ml, 72 hours, serum free; pIC50; read-out: SKOV3 cell (C2): IC50 (converted)
Description: The ovarian carcinoma cell line (SKOV3) was used in an epidermal growth factor stimulated cell proliferation assay, to assess the inhibitory effect of the compounds on EGF in whole cells.
In a first step the SKOV3 cells were incubated for 24 hours in the presence of 10% FCS serum. In the second step the cells were incubated with the compounds to be tested in a serum free condition (37° C. and 5% (v/v) CO2) and subsequently stimulated for 72 hours with EGF at a final concentration of 100 ng/ml. The effect of the compounds on the EGF stimulation was finally assessed in a standard MTT cell viability assay.

T1 sequence (P00533 712-979 limits assumed): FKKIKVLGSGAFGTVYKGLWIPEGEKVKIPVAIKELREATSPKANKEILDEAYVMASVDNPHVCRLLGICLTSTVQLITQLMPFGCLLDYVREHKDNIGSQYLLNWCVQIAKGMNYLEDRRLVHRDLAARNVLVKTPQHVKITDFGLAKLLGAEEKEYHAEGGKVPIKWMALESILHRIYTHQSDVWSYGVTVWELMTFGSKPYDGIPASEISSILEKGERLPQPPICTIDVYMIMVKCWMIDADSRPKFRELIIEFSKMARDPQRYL

Row | Compound | IC50 [1] [nM] | IC50 [2] [nM] | melting point [°C]
1 | Clc1ccc2c(c1)Nc1ncnc3ccc(nc13)NCCCCCCO2 [Compound 1, 7H,19H-4,6-ethanediylidenepyrimido[4,5-b][13,1,4,6]benzoxatriazacyclopentadecine, 17-chloro-8,9,10,11,12,13-hexahydro-] | 5.01 | 589 | 
2 | Clc1ccc2c(c1)Nc1ncnc3cnc(nc13)NCCCCCCO2 [Compound 2, 6,4-(nitrilometheno)pyrimido[4,5-b][13,1,4,6]benzoxatriazacyclopentadecine, 17-chloro-7,8,9,10,11,12,13,19-octahydro-] | 3.16 | > 10000 | > 260
3 | OCCCCNc1ccc2ncnc(Nc3cc(Cl)ccc3O)c2n1 [Intermediate 3, phenol, 4-chloro-2-[[6-[(4-hydroxybutyl)amino]pyrido[3,2-d]pyrimidin-4-yl]amino]-] | 3.98 | 794 | 
4 | OCCCCCCNc1ncc2ncnc(Nc3cc(Cl)ccc3O)c2n1 [Intermediate 6, phenol, 4-chloro-2-[[6-[(6-hydroxyhexyl)amino]pyrimido[5,4-d]pyrimidin-4-yl]amino]-] | 3.98 | 1000 | 

The next lines start with the values.

Row | IC50 [1] [nM] | IC50 [2] [nM] | melting point [°C] | Compound
5 | 6.31 | 3160 |  | OCCCCCCNc1ccc2ncnc(Nc3cc(Cl)ccc3O)c2n1 [Intermediate 2, phenol, 4-chloro-2-[[6-[(6-hydroxyhexyl)amino]pyrido[3,2-d]pyrimidin-4-yl]amino]-]
6 | 5.01 | 1580 |  | OCCCCCNc1ccc2ncnc(Nc3cc(Cl)ccc3O)c2n1 [Intermediate 4, phenol, 4-chloro-2-[[6-[(5-hydroxypentyl)amino]pyrido[3,2-d]pyrimidin-4-yl]amino]-]
